Source: US20110159022A1, “Immunogenic Peptides Derived from the Midkine Protein, as an Anticancer Vaccine” (priority 2008, published 2011)

Key:
[1] = test system: CD8^+ T lymphocytes of healthy individuals possessing the HLA-A2 molecule; assay: In vitro induction of peptide-specific CD8+ T lymphocyte lines, IFN-γ Elispot; assay type: cell-based, human; settings: for Ability to induce an in vitro CD8+ T lymphocyte response: cells from healthy HLA-A2 individuals, 4 weeks of culture
Protocol: The PBMCs were then cultured in AIM V medium (Life Technologies) and incubated overnight at 37° C. in the presence of 5% CO2/95% air. The CD8^+ T lymphocytes were purified from the nonadherent cells by immunomagnetic sorting, and frozen. The adherent cells were differentiated into immature dendritic cells by culturing for 5 days in AIM V medium containing 1000 U/ml of GM-CSF and 1000 U/ml of IL-4, and then into mature dendritic cells by culturing for 2 days in the presence of 1 μg/ml of LPS, 1000 U/ml of IL-4 and 1000 U/ml of GM-CSF. The mature dendritic cells were incubated in the presence of 5 μg/ml of beta-2-microglobulin and 10 μg/ml of each of the peptides of table IV. After 4 hours, the cells were washed and then placed in culture in 96-well plates, in the presence of purified CD8 T lymphocytes in IMDM medium containing 10% of group AB human serum, IL-6 (1000 U/ml) and IL-12 (5 ng/ml). Each week, the culture was restimulated with autologous mature dendritic cells loaded with the peptide mixture mentioned above, in medium containing 20 U/ml of IL-2 and 10 ng/ml of IL-7. After 4 weeks of culture, the specificity of the T cell lines contained in each well was tested by IFN-γ Elispot.
Anti-IFN-γ antibodies (1-D1K, Mabtech) diluted to 2.5 μg/ml in PBS buffer were adsorbed onto nitrocellulose plates (Millipore) for 1 hour at 37° C. The plates were then washed with PBS and then saturated with Iscove medium containing 10% of group AB human serum (100 μg/well), for 2 h at 37° C.
In order to verify the specificity of the lines with respect to the HLA-A2 molecule, the C1R cells transfected with HLA-A2 (30 000 cells/well) and 5000 test lymphocytes were then added to the plates and incubated for 24 h at 37° C., in the presence or absence of a single peptide (10 μg of peptide) or of a mixture of peptides (10 μg of each peptide). For the dose-response analyses, the peptides are used at various concentrations ranging from 0.001 to 10 μg/ml.
After three successive washes with water, PBS buffer/0.05% Tween and PBS alone, 100 μl of biotinylated anti-IFN-γ secondary antibody (7-B6-1-biotin, Mabtech), diluted to 0.25 μg/ml in PBS containing 1% BSA, were added to each well. After one hour of incubation at ambient temperature, the plates were washed again and then incubated for one hour at ambient temperature with 100 μg/well of Extravidin-AKP (E-2636, Sigma), diluted to 1/6000. After washing of the plates in PBS buffer, 100 μl of NBT/BCIP substrate B-5655, Sigma), diluted in water (1 tablet in 10 ml of water), were distributed in each well. The immunoenzymatic visualization was stopped after approximately 10 minutes, by thorough rinsing of the plates in water. After drying of the plates, the colored spots were counted using an automatic reader (AID). The lines are considered to be positive when the number of spots is more than three times that obtained with the negative control (control without peptides) with a minimum of 50 spots. The control without presenting cells makes it possible to verify the specificity of the response for HLA-A2 (restriction control).

HLA-DR3 (DRB1*0301) = HLA-DR3 (DRB1*0301) (Homo sapiens, UniProt P01903+P01911, A100K/A102G/A103R/A169T/F55Y/I96L/K41T/L162R/M171V/P40S/Q125H/Q178H/Q39Y/R42S/S66N/T106N/T262R/W38E/Y61H); assay: HLA II/peptide competition binding assay, DR3; settings: ratio of IC50 of competitor peptide to IC50 of reference peptide; mean of at least two independent experiments; less than 100 = active
HLA-DR4 (DRB1*0401) = HLA-DR4 (DRB1*0401) (Homo sapiens, UniProt P01903+P01911, A100K/A169T/F76Y/I96L/K127E/L162R/M171V/N62H/P40V/Q125Y/R42H/S133A/S149N/S66Y/V115G/V209L/W38E); assay: HLA II/peptide competition binding assay, DR4; settings: ratio of IC50 of competitor peptide to IC50 of reference peptide; mean of at least two independent experiments; less than 100 = active
HLA-DR13 (DRB1*1301) = HLA-DR13 (DRB1*1301) (Homo sapiens, UniProt P01903+P01911, A100E/A169T/K41T/L162R/M171V/P40S/Q125H/Q178H/Q39Y/Q99D/R42S/S66N/T262R/W38E/Y61H); assay: HLA II/peptide competition binding assay, DR13; settings: ratio of IC50 of competitor peptide to IC50 of reference peptide; mean of at least two independent experiments; less than 100 = active
[2] = test system: 12 predominant HLA II molecules; assay: HLA II/peptide binding assays, count over the panel; parameters: species or system human; settings: relative activity of less than 100 characterizes the active peptides
Excerpt: The assays for binding to HLA II molecules are competition binding assays with immunoenzymatic visualization, as described in U.S. Pat. No. 6,649,166 and PCT international application WO 03/040299, respectively, for the HLA-DR and HLA-DP4 molecules. The implementation of these assays for measuring the binding activity of peptides derived from various antigens is illustrated in U.S. Pat. No. 6,649,166 and PCT international applications WO 02/090382, WO 03/040299 and WO 2004/014936.
The sensitivity of each test is reflected by the IC50 values observed with the nonbiotinylated peptides which correspond to the tracers. […] The results are expressed in the form of relative activity (ratio of the IC50 of the competitor peptide to that of the reference peptide (nonbiotinylated peptide which corresponds to the tracer)). A relative activity of less than 100 characterizes the active peptides.

For ALLALTSAV (MDK 13-21 peptide), the “Peptide specificity of CD8+ T lymphocyte line 267.29A” value ([1]; FIG. 2) was “specific”, the “Peptide specificity of CD8+ T lymphocyte line 278.11A” value ([1]; FIG. 2) was “specific” and the “Ability to induce an in vitro CD8+ T lymphocyte response” value (“Ability” below) [1] was “induced CD8^+ T lymphocytes”.

LALLALTSAV (MDK 12-21 peptide) was tested, and the “Peptide specificity of CD8+ T lymphocyte line 267.29A” value ([1]; FIG. 2) was “specific” and the “Ability” value [1] was “induced CD8^+ T lymphocytes”.

With AQCQETIRV (MDK 114-122 peptid) the “Peptide specificity of CD8+ T lymphocyte line 314.28” value ([1]; FIG. 2) was “specific” and the “Ability” value [1] was “induced CD8^+ T lymphocytes”.

NAQCQETIRV (MDK 113-122 peptide) was tested, and the “Ability” value [1] was “induced CD8^+ T lymphocytes”.

With “R G F L L L T L L A L L A L T (RGFLLLTLLALLALT; MDK 4-18 peptide)” the “Relative binding activity, DR3” value (HLA-DR3 (DRB1*0301)) was greater than 419, the “Relative binding activity, DR4” value (HLA-DR4 (DRB1*0401)) was 136 and the “Relative binding activity, DR13” value (HLA-DR13 (DRB1*1301)) was >2 537. For the same substance, the “Total (number of the 12 predominant HLA II molecules bound)” value [2] was 9 and the “Total (number of the 12 predominant HLA II molecules bound)” value ([2]; listed as 4-18) was “several”.
